Drawing on PMC9136578 (Acta Pharmaceutica Sinica. B, 2021), this text covers EC50 for three molecules.

Molecules are shown by their SMILES. Numbered stars: 1 amine (or outer) side, 2 acyl side, 3 side chain; on linkers, the order of the positions; unused ones are H or OH. Square brackets hold non-standard residues; d marks the D form. Side chains are listed from the residue outwards. Peptide text beside a SMILES is read from it. * marks the point of attachment. C18 diacid = O=C(O)CCCCCCCCCCCCCCCCC(=O)*; γGlu = O=C(O)[C@H](CCC(=O)[*:2])N[*:1]; PEG2 = NCCOCCOCCC(=O)O

Sequence of human GLP-1R (P43220 24-463): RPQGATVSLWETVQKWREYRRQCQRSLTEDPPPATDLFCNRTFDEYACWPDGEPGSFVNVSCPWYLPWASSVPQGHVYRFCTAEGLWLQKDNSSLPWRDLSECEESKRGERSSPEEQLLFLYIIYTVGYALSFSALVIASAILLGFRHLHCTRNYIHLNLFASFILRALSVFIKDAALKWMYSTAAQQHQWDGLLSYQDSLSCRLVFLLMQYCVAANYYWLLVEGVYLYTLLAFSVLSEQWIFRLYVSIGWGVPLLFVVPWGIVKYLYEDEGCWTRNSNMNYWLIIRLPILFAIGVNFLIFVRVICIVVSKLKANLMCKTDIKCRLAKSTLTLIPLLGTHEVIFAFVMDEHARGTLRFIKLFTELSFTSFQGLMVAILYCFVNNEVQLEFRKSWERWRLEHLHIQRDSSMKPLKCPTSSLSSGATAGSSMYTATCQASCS

This test concerns the target human GLP-1R (Homo sapiens, UniProt P43220). Nature of the test: CRE-driven luciferase reporter. Format: cell-based.
As a reminder, the EC50 is the concentration needed to bring the measured effect to its halfway point. Take `CC(C)C[C@H](NC(=O)[C@H](CC(C)C)NC(=O)[C@H](Cc1c[nH]c2ccccc12)NC(=O)[C@H](CCC(=O)O)NC(=O)[C@@H](NC(=O)[C@H](Cc1ccccc1)NC(=O)[C@H](CC(=O)O)NC(=O)[C@H](Cc1c[nH]cn1)NC(=O)[C@H](C)NC(=O)[C@H](C)NC(=O)[C@H](CCCCNC(=O)CCOCCOCCNC(=O)CCOCCOCCNC(=O)CC[C@H](NC(=O)CCCCCCCCCCCCCCCCC(=O)O)C(=O)O)NC(=O)[C@H](CO)NC(=O)[C@H](CC(=O)O)NC(=O)[C@H](CC(C)C)NC(=O)[C@H](Cc1ccc(O)cc1)NC(=O)[C@H](CCCCN)NC(=O)[C@H](CO)NC(=O)[C@H](Cc1ccc(O)cc1)NC(=O)[C@H](CC(=O)O)NC(=O)[C@H](CO)NC(=O)[C@@H](NC(=O)[C@H](Cc1ccccc1)NC(=O)[C@@H](NC(=O)CNC(=O)[C@H](CCC(N)=O)NC(=O)[C@@H](CO)NC(=O)[C@@H](N)Cc1c[nH]cn1)[C@@H](C)O)[C@@H](C)O)C(C)C)C(=O)N[C@@H](CCCNC(=N)N)C(=O)N[C@@H](C)C(N)=O` [TA002] (H-H[dS]QGTFTSDYSKYLDSK([PEG2-PEG2-γGlu-C18 diacid])AAHDFVEWLLRA-NH2): the response was half-maximal at 0.32 nM (EC50). As for `CCCCCCCCCCCCCCCCCC(=O)NCCOCCOCCC(=O)NCCOCCOCCC(=O)NCCCC[C@H](NC(=O)[C@H](CC(=O)O)NC(=O)[C@H](CO)NC(=O)[C@@H](NC(=O)[C@H](Cc1ccccc1)NC(=O)[C@@H](NC(=O)CNC(=O)[C@H](CCC(N)=O)NC(=O)[C@@H](CO)NC(=O)[C@@H](N)Cc1c[nH]cn1)[C@@H](C)O)[C@@H](C)O)C(=O)N[C@@H](CO)C(=O)N[C@@H](CCCCN)C(=O)N[C@@H](Cc1ccc(OS(=O)(=O)F)cc1)C(=O)N[C@@H](CC(C)C)C(=O)N[C@@H](CC(=O)O)C(=O)NC(C)(C)C(=O)N[C@@H](CCCNC(=N)N)C(=O)N[C@@H](CCCNC(=N)N)C(=O)N[C@@H](C)C(=O)N[C@@H](CCC(N)=O)C(=O)N[C@@H](CC(=O)O)C(=O)N[C@@H](Cc1ccccc1)C(=O)N[C@H](C(=O)N[C@@H](CCC(N)=O)C(=O)N[C@@H](Cc1c[nH]c2ccccc12)C(=O)N[C@@H](CC(C)C)C(=O)N[C@@H](CCSC)C(=O)N[C@@H](CC(N)=O)C(=O)N[C@H](C(=O)NCC(=O)NCC(=O)N1CCC[C@H]1C(=O)N[C@@H](CO)C(=O)N[C@@H](CO)C(=O)NCC(=O)N[C@@H](C)C(=O)N1CCC[C@H]1C(=O)N1CCC[C@H]1C(=O)N1CCC[C@H]1C(=O)N[C@@H](CO)C(N)=O)[C@@H](C)O)C(C)C` [TA006], the EC50 turned out to be 2.5 nM.

Turning to `CC(C)C[C@H](NC(=O)[C@H](CC(C)C)NC(=O)[C@H](Cc1c[nH]c2ccccc12)NC(=O)[C@H](CCC(=O)O)NC(=O)[C@@H](NC(=O)[C@H](Cc1ccccc1)NC(=O)[C@H](CC(=O)O)NC(=O)[C@H](Cc1c[nH]cn1)NC(=O)[C@H](C)NC(=O)[C@H](C)NC(=O)[C@H](CCCCNC(=O)CCOCCOCCNC(=O)CCOCCOCCNC(=O)CC[C@H](NC(=O)CCCCCCCCCCCCCCCCC(=O)O)C(=O)O)NC(=O)[C@H](CO)NC(=O)[C@H](CC(=O)O)NC(=O)[C@H](CC(C)C)NC(=O)[C@H](Cc1ccc(O)cc1)NC(=O)[C@H](CCCCN)NC(=O)[C@H](CO)NC(=O)[C@H](Cc1ccc(O)cc1)NC(=O)[C@H](CC(=O)O)NC(=O)[C@H](CO)NC(=O)[C@@H](NC(=O)[C@H](Cc1ccccc1)NC(=O)[C@@H](NC(=O)CNC(=O)[C@H](CCC(N)=O)NC(=O)[C@@H](CO)NC(=O)[C@@H](N)Cc1c[nH]cn1)[C@@H](C)O)[C@@H](C)O)C(C)C)C(=O)N[C@@H](CC(N)=O)C(=O)NCC(=O)NCC(=O)N1CCC[C@H]1C(=O)N[C@@H](CO)C(=O)N[C@@H](CO)C(=O)NCC(=O)N[C@@H](C)C(=O)N1CCC[C@H]1C(=O)N1CCC[C@H]1C(=O)N1CCC[C@H]1C(=O)N[C@@H](CO)C(N)=O` [TA004] (H-H[dS]QGTFTSDYSKYLDSK([PEG2-PEG2-γGlu-C18 diacid])AAHDFVEWLLNGGPSSGAPPPS-NH2), the EC50 came out at 0.19 nM.
